Entries after “also recorded” stand apart in the source; their conditions may differ.
Legend:
[1] = system: various yeast strains and filamentous fungi (strains A-M); test: Antifungal activity over the whole panel (summary of MIC data); type: cell-based, Candida and Aspergillus strains; details: over the fungal strains tested, based on MIC data of Table 1
In short: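 Yeasts (A–J) followed CLSI M27-A3 broth microdilution at 2–4×10^3 CFU/mL in RPMI 1640 with DMSO <1.25%. Aspergillus (K–M) followed CLSI M38-A2 with spores at 5×10^5 CFU/mL, 48 h at 35 °C. MIC is the lowest concentration giving complete growth inhibition (MIC-0), tested in triplicate.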

[2] = system: human bronchus normal cell line BEAS-2B; test: In vitro cytotoxicity assay (resazurin); type: cell-based; details: 24 h
Method: The human bronchus normal cell line BEAS-2B (ATCC CRL-9609) and the human lung carcinoma cell line A549 (ATCC CRL-185) were kind gifts from the laboratories of Dr. Matthew S. Gentry (University of Kentucky, Lexington, KY, USA) and Dr. David K. Orren (University of Kentucky, Lexington, KY, USA). The mammalian cells were grown in Dulbecco's Modified Eagle's Medium (DMEM) (from ATCC) with 10% fetal bovine serum (FBS) (from ATCC) and 1% Pen/Strep (from ATCC). Cell lines were cultured at 37° C. with 5% CO2 and passaged by trypsinization with 0.05% trypsin:0.53 mM EDTA (from ATCC). Cell confluency was determined by using a Nikon Eclipse TS100 microscope (Minato, Tokyo, Japan).
Cytotoxicity assays were performed as previously described with slight modifications. A549 and BEAS-2B cells were first thawed from stocks and grown. The confluent cells were transferred to a 96-well microtiter plates at density of 3000 cells/well. The 96-well plates were incubated at 37° C. with 5% CO2 overnight. […] The stock solutions were serially diluted in 1.5 mL eppendorf tubes to achieve concentrations of 31-0.12 mg/mL. 1 μL of these 1000× compound stock solutions was then added to 999 μL of DMEM medium in 1.5 mL eppendorf tubes to obtain final concentrations of 31-0.12 μg/mL. […] The 96-well plates were further incubated for 24 h at 37° C. with 5% CO2. To evaluate cell survival, each well was treated with 10 μL (25 mg/L) of resazurin sodium salt (Sigma-Aldrich, St. Louis, MO, USA) and incubated for another 6 h. Metabolically active cells can convert resazurin to the highly fluorescent dye, resorufin, and be detected at A560 excitation and A590 emission using a SpectraMax M5 plate reader (Molecular Devices, San Jose, CA, USA). […] The percentage survival rates were calculated by using the following formula: % cell survival=[(fluorescence of sample)−(fluorescence of background)]×100/[(fluorescence of negative control)−(fluorescence of background)]. Experiments were done in duplicate.

SMILES	antifungal activity (in words) [1]	toxicity (in words) ([2]; BEAS-2B at 15.5 μg/mL)	toxicity (in words) ([2]; BEAS-2B at 31 μg/mL)
Fc1cccc(N/N=C/c2ccc(-c3cccc(/C=N/Nc4cccc(F)c4)c3)cc2)c1 [Compound 12a]	good activity		
COc1ccc(N/N=C/c2ccc(-c3cccc(/C=N/Nc4ccc(OC)cc4)c3)cc2)cc1 [Compound 15a]		non-toxic	
COc1ccc(N/N=C/c2ccc(-c3ccc(/C=N/Nc4ccc(OC)cc4)cc3)cc2)cc1 [Compound 15b]	good activity against the majority of the fungal strains tested	non-toxic	
Fc1ccc(N/N=C/c2ccc(-c3cccc(/C=N/Nc4ccc(F)cc4)c3)cc2)cc1 [Compound 17a]	good activity against the majority of the fungal strains tested		non-toxic
C/C(=N\Nc1ccc(F)cc1)c1ccc(-c2ccc(/C(C)=N/Nc3ccc(F)cc3)cc2)cc1 [Compound 17c, 4,4′-bis((E)-1-(2-(4-fluorophenyl)hydrazono)ethyl)-1,1′-biphenyl]		non-toxic	
Fc1ccc(N/N=C/c2ccc(-c3cccc(/C=N/Nc4ccc(F)cc4F)c3)cc2)c(F)c1 [Compound 20a]	overall antifungal activity against all the strains tested; also recorded: good activity against the majority of the fungal strains tested	non-toxic	

From patent US11851391B2, “Antifungal compounds and methods of forming the same” (University of Kentucky Research Foundation, priority 2018, dated 2023)
